Series [1] concerns the target T1, I-Ab (Mus musculus, UniProt P14434+P14483).
T1 sequence (P14434 24-256): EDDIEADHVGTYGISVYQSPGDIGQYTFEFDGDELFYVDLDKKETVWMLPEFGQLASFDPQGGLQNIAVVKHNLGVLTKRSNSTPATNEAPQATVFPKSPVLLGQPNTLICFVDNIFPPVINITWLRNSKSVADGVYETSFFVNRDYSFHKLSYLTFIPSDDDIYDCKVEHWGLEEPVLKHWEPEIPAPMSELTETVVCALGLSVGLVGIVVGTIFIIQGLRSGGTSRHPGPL
T1 sequence (P14483 28-265): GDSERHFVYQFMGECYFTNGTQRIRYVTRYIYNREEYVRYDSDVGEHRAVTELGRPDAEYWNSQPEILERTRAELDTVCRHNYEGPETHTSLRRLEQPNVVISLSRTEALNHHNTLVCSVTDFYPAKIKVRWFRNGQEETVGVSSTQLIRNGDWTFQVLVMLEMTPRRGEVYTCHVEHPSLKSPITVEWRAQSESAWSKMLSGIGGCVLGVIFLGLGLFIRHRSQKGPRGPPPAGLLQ
The settings on record: haplotype of C57BL/6 mice; read-out: Reported affinity for I-Ab; cited from earlier work.

The subject of series [2] is CFT073 uropathogenic E. coli. The series can be described thus: Transurethral infection model with CFT073. Conditions: 5×10^7 CFU CFT073, vs control OVA vaccine.
Experimental: Bacterial Culture and Challenge Model. The uropathogenic E. coli strain CFT073 was purchased from ATCC (700928); this strain was originally isolated from a pyelonephritis patient. CFT073 was cultured at 37° C. with aeration in Luria broth (10 g/L tryptone, 5 g/L yeast extract, 10 g/L sodium chloride) at a 1:100 dilution from a starter culture.
For the transurethral infection model, water supply was removed from cages for one hour prior to infection to allow for voiding of bladder. Mice were sedated with an i.p. injection of a ketamine/xylazine cocktail and a sterilized plastic needle dabbed in surgical lubricant was used to deliver 5×10^7 CFU of CFT073 into the urethra. Mice were monitored as for the bacteremia model, but with sacrifice at 48 h.
Series [3] deals with gut microbiome. Description: Microbiome analysis of fecal pellets (16S rRNA sequencing). The series is classed as in vivo, C57BL/6 mice. The procedure:
Microbiome Analysis. Fecal pellets were collected from mice and immediately frozen on dry ice prior to storage at −80° C. Samples were submitted to the Duke Center for Genomic and Computational Biology Microbiome Shared Resource core for microbiome analyses. In brief, the Duke Microbiome Core Facility (MCF) extracted DNA using the Qiagen PowerSoilPro DNA Kit (Qiagen, 47014). Bacterial community composition in isolated DNA samples was characterized by amplification of the V4 variable region of the 16S rRNA gene by polymerase chain reaction using the forward primer 515 and reverse primer 806 following the Earth Microbiome Project protocol (http://www.earthmicrobiome.org/). These primers (515F and 806R) carry unique barcodes that allow for multiplexed sequencing. Concentration of the PCR products were accessed using a Qubit dsDNA HS assay kit (ThermoFisher, Q32854) and a Promega GloMax plate reader. Equimolar 16S rRNA PCR products from all samples were pooled prior to sequencing, which was performed by the Duke Sequencing and Genomic Technologies (SGT) shared resource on an Illumina MiSeq instrument configured for 250 base-pair paired-end sequencing runs.
Sequences were analyzed using QIIME2 software. Demultiplexed forward reads were assigned a cut off between 10-230 bp and reverse reads were assigned a cut off between 10-160 bp. […]

Series [4] in a line: Nanofiber structure after freeze-drying, tabletization and dissolution (atomic force microscopy). The series is classed as physicochemical. The settings on record: various levels of cryoprotectant sugars. The procedure: FIG. 16. SIMPL tablets incorporating Coil29-based nanofibers. Top panel: epitope-containing peptide nanofibers were assembled in buffer, then cryoprotectant sugars were added, and tablets were formed by freeze drying. Bottom panel: Tablets were stable enough for handling (left), and Coil29 nanofibers retained their structure after freeze-drying, tabletization, and dissolution (images by atomic force microscopy).

Series [5] relates to OVA323-339. The series can be described thus: Anti-OVA antibody responses after sublingual nanofiber immunization of mice. Format: in vivo.
For series [6], the system named is 1:1:1 mixture of plreA, plutA, and plroN. Description: Urinary antibody ELISA on undiluted urine of immunized mice. The settings on record: one nanofiber and three nanofiber groups combined. In general terms: In an ELISA, binding on a coated surface is turned into a signal by an enzyme label.
Experimental: Animals and Immunizations. […] Murine immunizations were initiated with female C57BL/6 mice (Envigo) aged 9-12 weeks. For sublingual immunizations, mice were deeply anesthetized by a cocktail delivering 100 mg/kg ketamine and 10 mg/kg xylazine. For droplet immunizations, a micropipette with a 20 μL tip was used to apply 8 μL of the immunizing solution below the tongue. For tablet immunizations, the tablet was placed below the tongue of anesthetized mice using tweezers. For droplet and tablet immunizations, the mouse's heads were placed in anteflexion for 20 min following administration to prevent swallowing of the material.
Measurement of Antibody Responses. Serum was collected via the submandibular vein. For analysis of epitope-specific IgG by ELISA, plates were coated with 20 μg/mL of streptavidin (Millipore Sigma, 189730) overnight at 4° C. Plates were washed with 0.5 g/L Tween-20 in PBS (1×PBST), coated for 1 hour with 20 μg/mL biotinylated plreA, pluta, or plroN, and blocked with Super Block Blocking Buffer (Thermo Scientific, 37515). […] Sera diluted in PBST-BSA or undiluted urine were added to the plate, and antigen-specific IgG was detected by horseradish peroxidase (HRP) conjugated Fcγ fragment specific goat anti-mouse IgG (Jackson Immuno Research, 15-035-071). […]

These results are taken from patent US20250381256A1 (priority 2022, published 2025).

Entries after “also recorded” stand apart in the source; their conditions may differ. Square brackets hold non-standard residues; d marks the D form. Ends that are not written are not given here. Cha = N[C@@H](CC1CCCCC1)C(=O)O

As to QLVFNSISARALKAY [VAC], the Kd in series [1] is 13.5 nM.

Turning to `C[C@@H]1O[C@@H]1P(=O)(O)O` [Fosfomycin], in series [2], the “Body temperature after transurethral challenge” value is “maintained significantly higher temperatures than mice given the control vaccine”. For the same compound, the “OTU richness of the microbiome” value in series [3] (week 13 (vaccine) or week 13.5 (after 3 daily doses of 1000 mg/kg Fosfomycin)) is reported as “drastically reduced”. Moreover, the “Shannon diversity index (α-diversity)” value in series [3] (week 13 (vaccine) or week 13.5 (antibiotic)) is “highly significantly different from these groups”.

Regarding “QARILEADAEILRAYARILEAHAEILRAQ (Ac-QARILEADAEILRAYARILEAHAEILRAQ-NH2) [Coil29]”, the “Nanofibrillar structure in tablets” value in series [4] is given as “retained their nanofibrillar structure”. Besides, in series [5] (SIMPL tablets, range of peptide and cryoprotectant sugar concentrations, 10 μg c-di-AMP), the “Sublingual immunogenicity after tabletization” value is reported as “sublingually immunogenic”. For the same compound, the Sublingual immunogenicity result in series [5] (mouse models, Coil29 nanofibers, liquid formulations) is “did not depend on PASylation for immunogenicity”.

In the case of `Nc1ncnc2c1ncn2[C@@H]1O[C@@H]2COP(=O)(O)O[C@H]3[C@@H](O)[C@H](n4cnc5c(N)ncnc54)O[C@@H]3COP(=O)(O)O[C@H]2[C@H]1O` [cyclic-di-AMP], the “Epitope-specific IgA levels in the urine, adjuvant comparison” value in series [6] (cyclic-di-AMP vs CTB (p=0.038)) is “significantly higher epitope-specific IgA levels in the urine than CTB”. Further, the “Epitope-specific IgG levels in the urine, adjuvant comparison” value in series [6] (cyclic-di-AMP vs CTB (p=0.38)) is “did not differ significantly”. For the same compound, the “Serum IgG titers at reduced adjuvant dose” value in series [5] (1 μg c-di-AMP with 8 μL of 5 mM OVA-Coil29, sublingual) was “equivalent titers to 10 times that dose; also recorded: sufficient to raise strong titers”.

As to “PADRE ([dA]K[Cha]VAAWTLKA[dA]) [aKXVAAWTLKAa]”, in series [1], the Kd was 94 nM.
